In PubChem BioAssay (NCI) one finds TGI data, which are given here for eight compounds.

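1) Cells in 96-well plates. 2) Compound, 48 h, 5 concentrations. 3) Linear interpolation between surrounding doses. 4) Unreached endpoint = highest concentration. At the TGI there is no net growth.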

Among the test systems are MCF7 breast; MALME-3M melanoma; TK-10 renal; HCT-15 colon; CCRF-CEM leukemia; BT-549 breast; ACHN renal; M14 melanoma; SF-268 CNS; MDA-MB-231 breast; EKVX NSCLC; COLO 205 colon; SF-295 CNS; DU-145 prostate; SR leukemia; SK-OV-3 ovarian; HL-60(TB) leukemia; HOP-62 NSCLC; A498 renal.
Holding throughout (test): DTP human tumour cell line panel, 48 h

Regarding `CSC1=C(SC)SC(=C2SC3=C(SC(=C4SCCS4)S3)S2)S1`, the TGI in the test on MCF7 breast, with MALME-3M melanoma, with TK-10 renal, in the test on HCT-15 colon, in the test with CCRF-CEM leukemia and in the test with BT-549 breast was over 100 µM throughout. In addition, the TGI in the test with ACHN renal, in the test on M14 melanoma, in the test on SF-268 CNS, with MDA-MB-231 breast, in the test on EKVX NSCLC and in the test on COLO 205 colon was over 100 µM throughout. Besides, the TGI with SF-295 CNS, in the test with DU-145 prostate, with SR leukemia, in the test on SK-OV-3 ovarian, in the test on HL-60(TB) leukemia and in the test on HOP-62 NSCLC was over 100 µM in each case.

Turning to `COc1ccc2c(c1)CC[C@@H]1[C@@H]2CC[C@]2(C)C(=O)/C(=C/c3ccc(OC)c(OC)c3)C[C@@H]12`, the total growth inhibition concentration (TGI) in the test on MCF7 breast, in the test on MALME-3M melanoma, in the test on TK-10 renal, with HCT-15 colon, with BT-549 breast and with A498 renal was over 100 µM throughout. Further, the TGI in the test on ACHN renal, in the test with M14 melanoma, in the test with MDA-MB-231 breast, with EKVX NSCLC, in the test with SF-295 CNS and in the test with DU-145 prostate was over 100 µM each time. The total growth inhibition concentration (TGI) in the test with SR leukemia, in the test with SK-OV-3 ovarian, with HL-60(TB) leukemia and in the test with HOP-62 NSCLC was over 100 µM each time.

`COc1cc(/C=C2\C[C@H]3[C@@H]4CC=C5C[C@@H](O)CC[C@]5(C)[C@H]4CC[C@]3(C)C2=O)cc(OC)c1OC`: the total growth inhibition concentration (TGI) with MCF7 breast, in the test with MALME-3M melanoma, in the test on TK-10 renal, with HCT-15 colon, with BT-549 breast and in the test on A498 renal was over 100 µM each time. The total growth inhibition concentration (TGI) in the test with ACHN renal is over 100 µM; with M14 melanoma, 81.8 µM; in the test with SF-268 CNS, over 100 µM; with MDA-MB-231 breast, 81.1 µM; with EKVX NSCLC, over 100 µM; in the test on COLO 205 colon it was 54.9 µM. Besides, the TGI in the test with SF-295 CNS is 52.7 µM; with DU-145 prostate, over 100 µM; in the test with SK-OV-3 ovarian, over 100 µM; in the test with HL-60(TB) leukemia, 2.25 µM; in the test on HOP-62 NSCLC, over 100 µM.

Consider `O=C(C(=O)N1CCc2ccccc21)c1c[nH]c2ccccc12`, for which the total growth inhibition concentration (TGI) in the test on MCF7 breast, in the test on MALME-3M melanoma, in the test on TK-10 renal, in the test with HCT-15 colon, in the test on CCRF-CEM leukemia and with BT-549 breast was over 10 µM each time. The TGI in the test on ACHN renal, with M14 melanoma, in the test with SF-268 CNS, in the test on MDA-MB-231 breast, with EKVX NSCLC and with COLO 205 colon was over 10 µM each time. The TGI in the test with SF-295 CNS, in the test on DU-145 prostate, in the test with SR leukemia, in the test on SK-OV-3 ovarian, with HL-60(TB) leukemia and in the test on HOP-62 NSCLC was over 10 µM throughout.

Regarding `N#CSc1nc[nH]c1C(N)=O`, the total growth inhibition concentration (TGI) is over 100 µM in the test on MCF7 breast; 56.6 µM in the test with MALME-3M melanoma; over 100 µM in the test on TK-10 renal; over 100 µM in the test with HCT-15 colon; 14.4 µM with CCRF-CEM leukemia; over 100 µM in the test with BT-549 breast. For the same compound, the TGI with A498 renal, with ACHN renal, in the test with M14 melanoma, in the test with SF-268 CNS, with MDA-MB-231 breast and with EKVX NSCLC was over 100 µM in each case. Also, the TGI is over 100 µM in the test on COLO 205 colon; over 100 µM in the test with SF-295 CNS; over 100 µM in the test with DU-145 prostate; over 100 µM in the test with SK-OV-3 ovarian; 6.86 µM with HL-60(TB) leukemia; over 100 µM in the test with HOP-62 NSCLC.

Regarding `COC(=O)C1=C(C)NC(C)=C(C(=O)OC)C1c1ccc(/[N+]([O-])=C/c2ccccc2)cc1`, the TGI is 30.4 µM in the test on MCF7 breast; 31.3 µM in the test on MALME-3M melanoma; over 100 µM in the test on TK-10 renal; over 100 µM in the test on HCT-15 colon; 48 µM in the test on CCRF-CEM leukemia; 40.1 µM in the test on BT-549 breast. For the same compound, the TGI was 32.7 µM in the test with ACHN renal; 35.7 µM in the test on M14 melanoma; over 100 µM in the test on SF-268 CNS; over 100 µM in the test with MDA-MB-231 breast; over 100 µM with EKVX NSCLC; 35.1 µM in the test with COLO 205 colon. Besides, the TGI with SF-295 CNS is over 100 µM; in the test on DU-145 prostate it was over 100 µM; in the test on SR leukemia, 80 µM; in the test on SK-OV-3 ovarian, over 100 µM; in the test on HL-60(TB) leukemia, 63.2 µM; with HOP-62 NSCLC, over 100 µM.

`Cc1cn(C2CC(ON3C(=O)c4ccccc4C3=O)C(CO)O2)c(=O)[nH]c1=O` (stereo not drawn): the TGI in the test on MCF7 breast, in the test with MALME-3M melanoma, in the test with TK-10 renal, in the test with HCT-15 colon, in the test on CCRF-CEM leukemia and in the test on BT-549 breast was over 10 µM throughout. In addition, the TGI in the test on ACHN renal, with M14 melanoma, with SF-268 CNS, in the test on EKVX NSCLC, in the test with SF-295 CNS and in the test on DU-145 prostate was over 10 µM throughout. Besides, the TGI in the test on SR leukemia, with SK-OV-3 ovarian and in the test with HL-60(TB) leukemia was over 10 µM each time.

Consider `O=C(O)c1nc(-c2ccccn2)c(-c2ccccn2)nc1C(=O)O`, for which the TGI in the test with MALME-3M melanoma was 7.85 µM; in the test with TK-10 renal, 15.3 µM; in the test on HCT-15 colon, over 42.5 µM; in the test on CCRF-CEM leukemia, over 43.1 µM; in the test on BT-549 breast, 37.6 µM; with A498 renal, 4.12 µM. Besides, the TGI worked out at 7.35 µM in the test with ACHN renal; 3.59 µM in the test with M14 melanoma; 24.1 µM in the test on SF-268 CNS; 30.5 µM in the test with MDA-MB-231 breast; 13.6 µM with EKVX NSCLC; 7.75 µM in the test with COLO 205 colon. For the same compound, the total growth inhibition concentration (TGI) is 21.8 µM in the test with SF-295 CNS; 12.1 µM in the test on DU-145 prostate; 9.91 µM in the test with SR leukemia; 16.3 µM in the test on SK-OV-3 ovarian; 18.3 µM in the test with HL-60(TB) leukemia; 15.3 µM with HOP-62 NSCLC.

As a reminder, the TGI is the concentration giving total growth inhibition. A lower TGI goes with more potent growth arrest.
